In ChEMBL document CHEMBL3301464, “MMV Malaria Box anti-babesial screening” one finds IC50 data, which are given here for 46 molecules.

pIC50: −log10 of the molar value.

Test [1] in a line: (§1) MMV: Anti-babesial activity assay. Parasite pRBCs at 1% parasitemia were cultivated in 100 ul with 96-well plates at 2.5% and 5% hematocrits. The parasites were cultivated in triplicate for 4 days without replacement of the medium for each concentration of the compound. The format is functional, Babesia bovis.
The nature of test [2]: as §1. It is filed as functional, Babesia bigemina.
Test [3] is described as follows: as §1. The format is functional, Babesia equi.
The nature of test [4]: as §1. The format is functional, Babesia caballi.

Broadly, the pIC50 is −log10 of the IC50, conventionally taken in molar units. As to `Cc1ccnc(NC(c2cccc(OCc3ccccc3)c2)c2ccc3cccnc3c2O)c1` (centres undefined), the pIC50 in test [1] was 5.72; in test [2], 4.86; in test [3] it was 5.85; in test [4] it was 5.38.

Turning to `CCCCCCc1cc2cc(-c3csc(C=Cc4ccccc4)n3)c(=O)oc2cc1O`, the pIC50 in test [1] is 5.23; in test [2] it was 4.60; in test [3] it was 5.16; in test [4], 5.00.

In the case of `COc1cc(C(=O)ON=C(N)Cc2cccc3ccccc23)cc(OC)c1OC`, the pIC50 in test [1] is 4.88; in test [2], 4.90; in test [3], 5.00; in test [4], 5.28.

Take `CCN1CCN(c2c(C(=O)c3ccccc3)cnc3cc(OC)c(OC)cc23)CC1`: the pIC50 is 6.07 in test [1], 5.92 in test [2], 4.88 in test [3] and 4.80 in test [4].

Consider `O=C(CCl)NCCOc1ccc(Cl)cc1Cl`, for which the pIC50 in test [1] is 4.78; in test [2], 4.88; in test [3], 4.78; in test [4], 4.92.

As to `Nc1ccn([C@@H]2O[C@H](CO)[C@@H](O)[C@H]2O)c(=O)n1` [CYTIDINE], the pIC50 in test [1] is 5.14; in test [2], 4.72; in test [3], 4.85; in test [4], 5.37.

As for `Cc1ccc(F)cc1NC(=O)c1cc(Cl)ccc1Nc1ccccc1`, the pIC50 in test [1] is 4.73; in test [2], 4.99; in test [3], less than 4.60; in test [4], 5.59.

As to `COc1ccc(C2c3ccc4ccccc4c3Oc3ncn(CCCn4ccnc4)c(=N)c32)cc1OC` (centres undefined), the pIC50 is 5.20 in test [1], 7.00 in test [2], 5.25 in test [3] and 6.39 in test [4].

In the case of `CCOC(=O)c1ccc2nc(-c3ccccc3)cc(O)c2c1`, the pIC50 in test [1] was less than 4.60; in test [2], 4.85; in test [3] it was less than 4.60; in test [4] it was 4.85.

Regarding `O=C(Nc1ccc(F)c(Cl)c1)Nc1ccc(Cl)c(Cl)c1`, the pIC50 in test [1] is 5.45; in test [2], 5.47; in test [3], 5.47; in test [4], 5.42.

Regarding `Cc1cc(C)c2nc(N3CCC(C(=O)NCCCN4CCC(N5CCCCC5)CC4)CC3)sc2c1`, the pIC50 in test [1] is 5.56; in test [2], 5.41; in test [3], 6.19; in test [4], 5.32.

Take `CCC(O)c1ccc(Br)cc1NC(=O)c1cccc(Cl)c1` (centres undefined): the pIC50 is less than 4.60 in test [1], 5.13 in test [2], less than 4.60 in test [3] and 4.94 in test [4].

On to `Cc1ccc(-c2nc3ccccc3o2)cc1NCc1cc(Cc2ccccc2)ccc1O`, for which the pIC50 was 5.15 in test [1], 6.00 in test [2], 5.01 in test [3] and 5.98 in test [4].

`Oc1c(CN2CCN(c3ccccc3F)CC2)cc(Br)c2cccnc12`: the pIC50 is 5.48 in test [1], 5.34 in test [2], 4.89 in test [3] and 4.83 in test [4].

As to `Oc1c2c(nc3cc(-c4ccccc4)nn13)CCCC2`, the pIC50 in test [1] is 5.26; in test [2], less than 4.60; in test [3], 6.36; in test [4], 5.89.

For `O=C(NNc1cc(N2CCCC2)nc(N2CCCC2)n1)c1ccccc1`, the pIC50 in test [1] was 5.34; in test [2], 4.86; in test [3], 5.28; in test [4], 5.26.

As for `COC(=O)c1ccc(C2C3=C(O)CC(c4ccc(F)cc4)CC3=Nc3ccccc3N2C(=O)c2ccccc2)cc1` (centres undefined), the pIC50 is 7.20 in test [1], 7.07 in test [2], 4.98 in test [3] and 5.16 in test [4].

For the molecule `O=C(NC1CCN(Cc2ccccc2)CC1)c1cc2nc(-c3ccc(Cl)s3)cc(C(F)(F)F)n2n1`, the pIC50 in test [1] is 5.85; in test [2] it was 7.19; in test [3] it was 4.86; in test [4], 5.38.

With `COc1ccc(CCN2CCC(CN(C)Cc3cnn(-c4ccccc4)c3)CC2)cc1`, the pIC50 in test [1] is 6.06; in test [2], 5.37; in test [3], 6.21; in test [4], 5.61.

On to `OC(CNCC1CCCO1)Cn1c2ccc(Cl)cc2c2cc(Cl)ccc21` (centres undefined), for which the pIC50 in test [1] is 4.68; in test [2], 6.10; in test [3], 4.92; in test [4], 5.00.

As to `CCCc1cc(O)c2c3c(c(=O)oc2c1)CN(C)CC3`, the pIC50 in test [1] was 4.62; in test [2] it was 4.79; in test [3], 4.73; in test [4], 5.10.

In the case of `OC(Cn1nnc2ccccc21)Cn1c2ccc(Br)cc2c2cc(Br)ccc21` (centres undefined), the pIC50 in test [1] is 7.00; in test [2], 5.89; in test [3] it was 4.90; in test [4], 4.80.

As for `CC(C)=CCN1CCC(C(=O)Nc2ccc(-c3nc4ccccc4[nH]3)cc2)CC1`, the pIC50 in test [1] was 5.26; in test [2] it was 5.98; in test [3] it was 7.29; in test [4], 4.77.

As to `CCOC(=O)C1=C(C)N=c2sc(=Cc3ccccc3O)c(=O)n2C1c1ccc(OC)c2ccccc12` (centres undefined), the pIC50 is 4.66 in test [1], 4.80 in test [2], 5.00 in test [3] and 5.07 in test [4].

For the molecule `COc1ccc(Nc2cc(C)nc(NCc3ccccc3)n2)cc1`, the negative logarithm of the IC50 (pIC50) was 7.27 in test [1], 7.17 in test [2], 4.82 in test [3] and 4.84 in test [4].

With `Cn1c(=O)c2cc(C(=O)NCCCN3CCCCCC3)sc2c2ccccc21`, the pIC50 in test [1] is 5.00; in test [2] it was 5.10; in test [3] it was 5.27; in test [4], 4.86.

Regarding `O=C(Nc1ccc(-c2nc3cc4ccccc4cc3[nH]2)cc1)c1cccc(Br)c1`, the pIC50 is 5.15 in test [1], 5.31 in test [2], 5.00 in test [3] and 5.04 in test [4].

Turning to `CCOc1c(Cl)cc(CNCC(O)c2ccccc2)cc1OC` (centres undefined), the pIC50 in test [1] is 5.17; in test [2] it was 4.72; in test [3], 5.00; in test [4], 5.32.

Take `CN(C)c1ccc(N=Cc2ccc(N3CCOCC3)cc2)cc1`: the pIC50 in test [1] is 7.17; in test [2], 7.17; in test [3], 6.20; in test [4], 7.37.

Take `CCCc1c(C)nc2ccc(Br)cc2c1O`: the pIC50 is 4.78 in test [1], 4.93 in test [2], 4.88 in test [3] and 7.00 in test [4].

Regarding `Cc1sc(NC(=O)c2ccccc2)c(C(c2cccs2)N2CCN(c3ccccc3)CC2)c1C` (centres undefined), the pIC50 in test [1] is 5.98; in test [2] it was 6.17; in test [3], 4.97; in test [4], 4.83.

Consider `Oc1ccccc1CN1CCN(C(c2ccccc2)c2ccccc2)CC1`, for which the pIC50 in test [1] was 4.81; in test [2], 4.60; in test [3], 5.36; in test [4], 5.43.

Take `CCOC(=O)c1cnc2ccc(OC)cc2c1Nc1ccc(N2CCN(C)CC2)cc1`: the negative logarithm of the IC50 (pIC50) in test [1] is 7.21; in test [2], 6.00; in test [3] it was 5.00; in test [4], 5.08.

Turning to `COc1ccc2c(c1)OC(O)(C(F)(F)C(F)(F)F)CC2=O` (centres undefined), the pIC50 was less than 4.60 in test [1], 4.80 in test [2], 4.75 in test [3] and 4.93 in test [4].

For `COc1ccc(CN2CCN(Cc3ccccc3)CC2)c(O)c1`, the pIC50 in test [1] is 5.09; in test [2] it was 4.82; in test [3], 5.00; in test [4] it was 4.92.

For the molecule `Cc1ccc(C)c(Cn2c(N3CCC(C(=O)NCc4cccs4)CC3)nc3ccccc32)c1`, the pIC50 in test [1] is 6.89; in test [2], 7.00; in test [3] it was 5.00; in test [4], 4.78.

As to `Cc1ccc(-c2cc3nc4c(c(O)n3n2)CCCC4)cc1`, the pIC50 in test [1] is 5.14; in test [2] it was 4.82; in test [3] it was 5.15; in test [4], 4.80.

With `O=C(Nc1ccsc1C(=O)NC1CCCCC1)c1ccc(F)cc1`, the pIC50 in test [1] is 7.10; in test [2], 7.00; in test [3] it was 5.25; in test [4], 4.75.

As for `Cc1cc(Nc2cccc(F)c2)nc(NCc2ccccc2)n1`, the pIC50 was 5.00 in test [1], 7.03 in test [2], 5.30 in test [3] and 7.00 in test [4].

`Cc1sc(NC(=O)c2ccco2)c(C(c2cccnc2)N2CCC(Cc3ccccc3)CC2)c1C` (centres undefined): the pIC50 in test [1] is 7.07; in test [2], 7.14; in test [3] it was 4.76; in test [4] it was 6.35.

Regarding `CN(N=O)C1=C(NC2CCCCC2)C(=O)c2ccccc2C1=O`, the pIC50 in test [1] is 6.23; in test [2], 5.38; in test [3], 6.12; in test [4], 6.39.

In the case of `CCOc1cc(Cl)c(C(C)NC(=O)c2cccc(OC)c2)cc1OCC` (centres undefined), the pIC50 in test [1] was 4.60; in test [2] it was 5.14; in test [3], 5.61; in test [4], 4.73.

For `Cc1sc2ncnc(Sc3nc4ccccc4[nH]3)c2c1C`, the pIC50 was 7.30 in test [1], 6.39 in test [2], 5.26 in test [3] and 6.54 in test [4].

For `c1ccc(Cn2c(N=Nc3c(Nc4ccccc4)ccc4ccccc34)nc3ccccc32)cc1`, the pIC50 is 5.53 in test [1], 5.48 in test [2], 6.12 in test [3] and 5.55 in test [4].

`Clc1ccc2c(N3CCCC3)ccnc2c1`: the pIC50 is 5.15 in test [1], 5.04 in test [2], 5.05 in test [3] and 5.16 in test [4].

In the case of `O=C(NC1CCCCC1)C(c1cccs1)N(CCc1ccccc1)C(=O)c1ccco1` (centres undefined), the pIC50 in test [1] is 5.06; in test [2], 4.97; in test [3], 4.85; in test [4] it was 4.97.
